Data reported in patent US20150176022A1, “HERBICIDE-RESISTANT SUNFLOWER PLANTS, POLYNUCLEOTIDES ENCODING HERBICIDE=RESISTANT ACETO HYDROXY ACID SYNTHASE LARGE SUBUNIT PROTEINS, AND METHODS OF USE” (priority 2013, published 2015).

Assays:
[1] = system: Clearfield-Sunflower variety B; experiment: Greenhouse spray test, injury rating (Example 5); type: in vivo, Helianthus annuus; conditions: 14 DAT, scale 0=no injury to 9=dead plant
Excerpt: (§1) Sunflower lines S4897, Clearfield® sunflower varieties A, B, C and a conventional non-Clearfield variety were sprayed with three rates of imazamox (Raptor™), 100, 200 and 300 gm ai/ha plus 0.5% Sun It II and two rates of imazapyr (Arsenal™) 160 and 360 gm ai/ha plus 0.5% Sun It II when the plants were at the two to three leaf stage. Ratings were taken at 14 days after application (DAT) for injury. Injury was rated on a scale from 0 to 9 where 0=no injury to 9=dead plant. Twelve plants were sprayed per herbicide/rate treatment. Statistical analysis was conducted with STATGRAPHICS Plus 5.0 by using ANOVA and LSD procedures.
(§2) After plants were sprayed, it was realized that a height difference between S4897 and other sunflower varieties would have impacted the actual herbicide dose that was delivered. The spray boom height had been calibrated against S4897 and since the other varieties were taller and closer to the boom they would have received a greater dose of herbicide. Rates were recalibrated for the other varieties to determine the approximate dose they would have received. Assessments were made as presented in Table 2 since it was not possible to make a direct rate comparison due to the effect of the height. For example injury scores were compare for S4897 treated imazamox rate 100 gm ai/ha to the other varieties treated at 75 gm ai/ha. The treatment dose of 300 gm ai/ha for line S4897 was equivalent to the treatment of 200 gm ai/ha for the other varieties, which […].

Sunflower line S4897 = experiment: Greenhouse spray test, injury rating (Example 5); type: in vivo, Helianthus annuus; conditions: 14 DAT, scale 0=no injury to 9=dead plant
Excerpt: as §1, §2

[2] = system: Clearfield-Sunflower variety A; experiment: Greenhouse spray test, injury rating (Example 5); type: in vivo, Helianthus annuus; conditions: 14 DAT, scale 0=no injury to 9=dead plant
Excerpt: as §1, §2

[3] = system: Clearfield-Sunflower variety C; experiment: Greenhouse spray test, injury rating (Example 5); type: in vivo, Helianthus annuus; conditions: 14 DAT, scale 0=no injury to 9=dead plant
Excerpt: as §1, §2

[4] = system: Conventional non-Clearfield sunflower variety; experiment: Greenhouse spray test, injury rating (Example 5); type: in vivo, Helianthus annuus; conditions: 14 DAT, scale 0=no injury to 9=dead plant
Excerpt: as §1, §2

[5] = system: wild-type sunflower plants; experiment: Greenhouse spray treatment with imazamox (FIG. 3, 4); type: in vivo, Helianthus annuus; conditions: wild-type control plants, imazamox at either 100 or 200 g ai/ha
Description: (§3) The S4897 and IMISUN-1 sunflower plants were spray-treated with imazamox at rate of 200 g ai/ha. […] The photograph was taken a few days after the plants were spray treated.
(§4) FIG. 4 is graphical illustration of herbicide injury in a greenhouse test following the spray treatment of IMISUN-1, wild-type, and S4897 sunflower plants with imazamox at either 100 (light columns) or 200 g ai/ha (dark columns). […] Herbicide injury was evaluated 17 days after the imazamox application.

S4897 sunflower plants = experiment: as above; type: in vivo, Helianthus annuus; conditions: S4897 versus IMISUN-1 and wild-type; imazamox 100 or 200 g ai/ha; evaluated 17 days after application
Description: as §3, §4

AHAS = AHAS activity analysis, inhibition by herbicide (Example 5); type: biochemical, Helianthus annuus; conditions: AHAS of S4897 versus a Clearfield sunflower and a conventional non Clearfield variety; higher concentration of imazamox (FIG. 7)
Description: AHAS activity analysis was also conducted by selecting actively growing young leaves from plants that were not sprayed with herbicide at approximately four weeks after planting.

S4897 plants = experiment: Field trials in Argentina, resistance to imazapic (Example 4); type: in vivo, Helianthus annuus; conditions: S4897 versus IMISUN-1 (Ala190-to-Val), single row plots, no data presented
Description: In field trials in Argentina, S4897 plants were tested for resistance to imazapic. […] This trial had single row plots and was treated on a windy day, so the actual herbicide dose reaching the plants was likely less than was applied.

[6] = Imazamox 300 gm ai/ha (dose received)

COCc1cnc(C2=NC(C)(C(C)C)C(=O)N2)c(C(=O)O)c1 (stereo not shown) [imazamox]
Injury ([1]; Imazamox 75 gm ai/ha): 1.9 b | Injury ([1]; Imazamox 150 gm ai/ha): 4.8 c | Injury [1, 6]: 5.3 c | Injury (Sunflower line S4897; Imazamox 100 gm ai/ha): 0.5 a | Injury (Sunflower line S4897; Imazamox 200 gm ai/ha): little to no injury | Injury (Sunflower line S4897; Imazamox 200 gm ai/ha, listed as Imazamox): 0.8 a | Injury (Sunflower line S4897; Imazamox 300 gm ai/ha): very little injury | Injury (Sunflower line S4897; Imazamox 300 gm ai/ha, listed as Imazamox): 0.8 a | Injury ([2]; Imazamox 75 gm ai/ha): 4.3 c | Injury ([2]; Imazamox 150 gm ai/ha): significantly injured and had stopped growing | Injury ([2]; Imazamox 150 gm ai/ha, listed as Imazamox): 4.6 c | Injury [2, 6]: 6.5 days | Injury ([3]; Imazamox 75 gm ai/ha): 1.8 b | Injury ([3]; Imazamox 150 gm ai/ha): 2.9 b | Injury [3, 6]: 4.6 b | Injury ([4]; Imazamox 75 gm ai/ha): 7.2 days | Injury ([4]; Imazamox 150 gm ai/ha): 8.2 days | Injury [4, 6]: 8.7 e | survival following spray treatment [5]: did not survive | herbicide injury (resistance or tolerance) (S4897 sunflower plants): significantly greater resistance or tolerance | inhibition of AHAS activity (AHAS): less inhibition at the higher concentration of imazamox as compared to a Clearfield® sunflower and conventional non Clearfield variety

Cc1cnc(C2=NC(=O)C(C)(C(C)C)N2)c(C(=O)O)c1 (stereo not shown) [imazapic]
resistance (tolerance) to imazapic (S4897 plants): clearly superior to the IMISUN-1
